One data set has as its system EMC virus. Particulars: L929 cells; cited from earlier work.
A further data set relates to c-Kit tyrosine kinase. The following applies: cited from earlier work.
Another data set has as its system chronic phase CML. Particulars: high-dose, newly diagnosed chronic phase CML; cited from earlier work.
Data set [1] relates to GIST of the posterior wall of the stomach. In words: Imatinib mesylate treatment of GIST in the same patient.
Another data set concerns HCV. The following applies: 400 mg/day.
In another data set the test system is HIV-1. Particulars: cited from earlier work.
Setting [2] is: human patient with HCV and GIST, within 2 weeks after the beginning of treatment, FIG. 1.

Data on five compounds can be found in patent US8293745B2 (Bioniche Life Sciences Inc., priority 2004, dated 2012).

Method for HCV: A person diagnosed with chronic active hepatitis C. […] The patient was positive for antibodies for HCV. Histological confirmation of chronic hepatitis was corroborated by positive hepatic biopsies at month zero.
For 18 months, the patient was treated with interferon alpha-2 at 180 μg/week. For the next 4 months, the patient was given intravenous administration of 6 million units (MU) interferon-beta daily for 6 weeks followed by three times weekly for 20 weeks. Subsequently, the patient was treated with interferon alpha-2 at 180 μg/week plus ribavirin 1000-1200 mg/day for 5 months. Subsequently, the patient was treated with pegylated interferon alpha-2b (PEG-interferon) at 1.5 μg/kg once weekly for 25 months.
Subsequently, the patient was diagnosed with a GIST of the posterior wall of the stomach. […] The patient then underwent surgical resection of the GIST.

In the case of `O=c1c(-c2ccc(O)cc2)coc2cc(O)cc(O)c12` [genistein], the EMC virus replication result with EMC virus was “suppressed viral replication”.
With `CO[C@H]1[C@@H](OC)C[C@H](C)[C@@H](OC)C2=CC(=O)C=C(NC(=O)/C(C)=C/C=C\[C@H](OC)[C@@H](OC(N)=O)/C(C)=C/[C@@H]1C)C2=O` [herbimycin A], the EMC virus replication result in the data set with EMC virus is reported as “suppressed viral replication”.
In the case of `Cc1ccc(NC(=O)c2ccc(CN3CCN(C)CC3)cc2)cc1Nc1nccc(-c2cccnc2)n1` [imatinib, 4-[(4-methyl-1-piperazinyl)methyl]-N-[4-methyl-3-[[4-(3-pyridinyl)-2-pyrimidinyl]amino]phenyl]-benzamide], in the data set on c-Kit tyrosine kinase, the “inhibition of c-Kit tyrosine kinase activity, wild-type vs constitutively active enzyme” value was “equally effective against both wild-type and constitutively active enzyme”. Besides, the “rates of complete cytogenetic response and of molecular response” value with chronic phase CML is reported as “higher rates”.
As to `CS(=O)(=O)O.Cc1ccc(NC(=O)c2ccc(CN3CCN(C)CC3)cc2)cc1Nc1nccc(-c2cccnc2)n1` [imatinib mesylate, 4-[(4-methyl-1-piperazinyl)methyl]-N-[4-methyl-3-[[4-(3-pyridinyl)-2-pyrimidinyl]amino]phenyl]-benzamide methanesulfonate], the “remission of GIST” value in data set [1] (400 mg/day, pre- and postoperative) is “achieved cytogenetic and molecular remission”. Further, the complication during treatment entry in data set [1] (after 5 months preoperative 400 mg/day, treatment halted) is “acute hemorrhage of the tumor”. For the same compound, in data set [1] (after imatinib mesylate treatment), the “attenuation of the gastric tumor (histologic examination)” value was “significant decreased attenuation”. Moreover, in data set [1] (one year after the initiation of treatment), the metastasis status entry was “without metastasis”. In addition, in the data set with HCV (setting [2]), the “levels of alanine aminotransferase” value was “dramatically decreased” and the “levels of aspartate aminotransferase” value is “dramatically decreased”. The quality of life entry in the data set on HCV (patient-reported) is “clear improvement”.
As for `OCCC#Cc1nc(-c2ccc(F)cc2)c(-c2ccncc2)n1CCCc1ccccc1` [RWJ67657], the HIV-1 replication result in the data set on HIV-1 is “effective in inhibiting HIV-1 replication”.
